The values that follow come from ChEMBL document CHEMBL1201862, “PubChem BioAssay data set” (2004).

Activity calls are given as the source filed them. Bounds are passed on as bounds.

By EC50 is commonly meant the concentration giving half of the maximal effect. In general, IC50 refers to the midpoint of a concentration-inhibition curve. In general, CC50 refers to the concentration that lowers cell viability or growth by half. For orientation: AC50 means the concentration at which the activity in the assay is half-maximal.

Experiment [1] concerns the target Beta-galactosidase (Escherichia coli, UniProt Q8VNN2). In words: PubChem AID 485352. The class given is functional.
In experiment [2] the target is T1, Heat shock factor protein 1 (Mus musculus, UniProt P38532).
T1 sequence (P38532 whole entry): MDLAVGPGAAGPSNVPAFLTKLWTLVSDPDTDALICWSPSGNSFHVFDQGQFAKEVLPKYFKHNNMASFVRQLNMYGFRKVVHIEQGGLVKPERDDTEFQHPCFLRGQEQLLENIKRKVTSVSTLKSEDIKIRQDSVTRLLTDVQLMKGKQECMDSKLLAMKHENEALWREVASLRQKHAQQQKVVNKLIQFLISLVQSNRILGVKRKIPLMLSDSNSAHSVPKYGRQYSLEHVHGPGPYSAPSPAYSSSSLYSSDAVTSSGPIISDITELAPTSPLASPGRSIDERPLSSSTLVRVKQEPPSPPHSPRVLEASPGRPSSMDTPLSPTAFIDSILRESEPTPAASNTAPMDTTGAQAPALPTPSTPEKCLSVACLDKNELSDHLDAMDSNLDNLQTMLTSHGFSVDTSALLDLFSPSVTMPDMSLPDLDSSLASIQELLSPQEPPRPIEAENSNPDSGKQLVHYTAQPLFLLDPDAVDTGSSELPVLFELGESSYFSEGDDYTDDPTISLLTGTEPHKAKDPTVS
In words: inhibition of MG132-induced HSE-luciferase signal, confirmation, cell-based, NIH3T3, luminescence, dose retest (AID 2382).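 Note: NIH3T3 fibroblasts with HSF1-driven luciferase reporter stressed by proteasome inhibitor MG132; luminescence from HSF1-driven luciferase expression after 8 hours of MG132 stress.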 The experiment is classed as functional.

In experiment [3] the target is Large T antigen (Simian virus 40, UniProt P03070). The experiment is classed as functional, Betapolyomavirus macacae.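 Note: Confirmatory-stage PubChem screen for compounds that inhibit SV40 T antigen.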
Experiment [4] in a line: inhibitors of intracellular T. cruzi replication, confirmation, NIH3T3 host cells, beta-gal luminescence (AID 2044).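 Note: intracellular parasites grown in NIH/3T3 mouse fibroblasts as host cells; luminescent beta-galactosidase reporter signal from transgenic T. cruzi replicating inside host cells; inhibitors lower the luminescence signal.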 The experiment is classed as functional, cell-based.
Experiment [5] addresses T2, Type-1 angiotensin II receptor (Homo sapiens, UniProt P30556).
T2 sequence (P30556 whole entry): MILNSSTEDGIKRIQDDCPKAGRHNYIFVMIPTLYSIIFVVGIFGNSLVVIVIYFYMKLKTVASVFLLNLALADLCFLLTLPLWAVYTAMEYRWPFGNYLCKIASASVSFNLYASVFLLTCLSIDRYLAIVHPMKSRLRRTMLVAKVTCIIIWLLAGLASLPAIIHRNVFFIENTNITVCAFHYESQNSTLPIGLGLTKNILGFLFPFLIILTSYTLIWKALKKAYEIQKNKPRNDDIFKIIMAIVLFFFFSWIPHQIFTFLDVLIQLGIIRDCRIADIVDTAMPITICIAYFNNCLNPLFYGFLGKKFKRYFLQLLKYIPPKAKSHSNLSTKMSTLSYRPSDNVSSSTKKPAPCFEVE
The experiment in a line: AT1 receptor antagonists, dose response, selectivity assay for APJ receptor antagonist project, cell-based, uHTS hits (AID 463214).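 Note: antagonist potency against angiotensin II stimulated AT1 response.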 The experiment is classed as functional.

Experiment [6] in a line: cytotoxicity toward NIH3T3 fibroblasts, dose response, counter-screen, cell-based, ATP luminescence, mouse fibroblasts (AID 2010).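 Note: cells exposed to compound for about 90 hours before reading.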 The class given is functional.
Experiment [7] can be described thus: THP-1 cell cytotoxicity, dose response, cytotoxicity control for non-replicating M. tuberculosis project (AID 489025). The experiment is classed as functional.
Experiment [8] concerns CHO. In words: cytotoxicity in TLR9-MyD88 CHO cells, dose response, cytotoxicity control for TLR9-MyD88 binding inhibitor project, cell-based, luminescence (AID 588339).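 Note: CHO cells stably coexpressing TLR9 and MyD88 fusions from primary screen; compound exposure lasted 48 hours before viability readout.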 The class given is functional, hamster. The following applies: Cricetulus griseus.
Experiment [9] has as its target T3, Replicative DNA helicase DnaB (Mycobacterium tuberculosis, UniProt P9WMR3).
T3 sequence (P9WMR3 whole entry): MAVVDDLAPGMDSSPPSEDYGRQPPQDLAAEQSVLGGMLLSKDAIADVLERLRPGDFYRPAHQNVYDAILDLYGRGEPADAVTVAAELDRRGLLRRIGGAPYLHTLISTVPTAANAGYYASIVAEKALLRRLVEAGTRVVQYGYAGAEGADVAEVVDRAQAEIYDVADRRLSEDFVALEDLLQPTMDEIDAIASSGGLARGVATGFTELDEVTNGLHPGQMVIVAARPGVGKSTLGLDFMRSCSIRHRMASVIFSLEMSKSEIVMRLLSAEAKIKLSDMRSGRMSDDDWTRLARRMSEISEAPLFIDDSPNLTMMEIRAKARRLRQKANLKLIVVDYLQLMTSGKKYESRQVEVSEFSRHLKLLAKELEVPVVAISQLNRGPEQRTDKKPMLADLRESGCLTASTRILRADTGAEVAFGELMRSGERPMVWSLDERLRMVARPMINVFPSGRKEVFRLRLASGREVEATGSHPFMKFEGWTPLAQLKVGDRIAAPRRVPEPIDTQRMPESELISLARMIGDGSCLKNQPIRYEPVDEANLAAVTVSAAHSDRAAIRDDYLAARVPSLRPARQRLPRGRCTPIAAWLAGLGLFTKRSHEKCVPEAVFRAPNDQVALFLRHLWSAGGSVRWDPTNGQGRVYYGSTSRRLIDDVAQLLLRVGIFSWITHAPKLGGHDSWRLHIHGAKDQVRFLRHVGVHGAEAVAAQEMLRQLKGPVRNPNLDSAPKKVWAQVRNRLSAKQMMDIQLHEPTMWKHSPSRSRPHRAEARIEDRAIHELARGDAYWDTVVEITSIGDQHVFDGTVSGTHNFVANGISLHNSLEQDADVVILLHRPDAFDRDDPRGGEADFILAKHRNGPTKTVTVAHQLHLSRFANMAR
In words: DnaB intein splicing inhibitors, dose response, biochemical, cell-free fluorescence (AID 449749). The experiment is classed as functional.

In experiment [10] the target is T4, Protein RecA (Mycobacterium tuberculosis, UniProt P9WHJ3).
T4 sequence (P9WHJ3 whole entry): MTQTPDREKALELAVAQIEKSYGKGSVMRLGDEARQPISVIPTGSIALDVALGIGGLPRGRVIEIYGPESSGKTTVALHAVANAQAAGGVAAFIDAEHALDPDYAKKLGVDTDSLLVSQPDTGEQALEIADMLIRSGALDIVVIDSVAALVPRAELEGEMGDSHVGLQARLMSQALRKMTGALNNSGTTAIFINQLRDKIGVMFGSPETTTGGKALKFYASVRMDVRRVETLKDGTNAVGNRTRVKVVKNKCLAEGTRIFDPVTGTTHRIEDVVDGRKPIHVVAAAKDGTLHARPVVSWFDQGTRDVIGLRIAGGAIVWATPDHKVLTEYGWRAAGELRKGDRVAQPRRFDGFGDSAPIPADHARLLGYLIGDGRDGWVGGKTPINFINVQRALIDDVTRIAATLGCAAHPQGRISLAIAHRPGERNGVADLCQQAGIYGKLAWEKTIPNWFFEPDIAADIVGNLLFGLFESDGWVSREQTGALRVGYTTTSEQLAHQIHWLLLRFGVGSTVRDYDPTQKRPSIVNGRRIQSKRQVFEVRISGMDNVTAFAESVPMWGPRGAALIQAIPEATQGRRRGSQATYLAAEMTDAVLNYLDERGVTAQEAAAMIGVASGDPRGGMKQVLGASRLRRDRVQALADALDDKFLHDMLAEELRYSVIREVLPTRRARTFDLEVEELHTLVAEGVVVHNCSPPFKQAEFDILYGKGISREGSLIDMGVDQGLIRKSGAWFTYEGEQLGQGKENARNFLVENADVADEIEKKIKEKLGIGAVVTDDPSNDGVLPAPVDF
The experiment in a line: Fluorescence Cell-Free Homogeneous Dose Retest to Identify Inhibitors of RecA-Intein Splicing Activity. [Related pubchem assays (depositor defined):AID2097, AID2223, AID489010, AID492950]. The experiment is classed as functional.

For experiment [11], the target named is Beta Lactamase (Pseudomonas aeruginosa, UniProt Q932Y6). In words: beta-lactamase reporter inhibitor potency, dose response, artefact control for TLR9-MyD88 binding inhibitor project, BLA reporter cells, FRET fluorescence (AID 588341).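 Note: cell based assay in CHO-K1 cells stably expressing beta-lactamase.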 The experiment is classed as cell-based.
The subject of experiment [12] is INS1. The experiment in a line: beta cell apoptosis inhibitors, cytokine rescue, dose response, luminescence, retest (AID 449756).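 Note: cell death triggered by IL-1 beta plus TNF-alpha plus IFN-gamma mixture; protective hits raise ATP signal compared with cytokine alone wells.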 The class given is functional, cell-based. To be noted: Rattus norvegicus.
Experiment [13] concerns the target Melanocortin receptor 4 (Homo sapiens, UniProt P32245). In words: MC4R antagonist potency on cAMP, dose response, cell-based, TR-FRET, biased antagonists (AID 602298).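 Note: antagonist potency against agonist-stimulated cAMP production.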 The experiment is classed as functional. In general terms: In TR-FRET formats the signal depends on donor and acceptor labels being close together.
The nature of experiment [14]: nonselective inhibitors of cellular cAMP signaling, dose response, counter-screen for MC4R biased antagonist project, cell-based, TR-FRET cAMP detection (AID 602305).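 Note: U2OS cells stimulated with forskolin near its EC80 as the cAMP inducer; potency is for inhibition of forskolin-stimulated cAMP signaling.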 The class given is functional. (In general: The purpose of a counterscreen is to sort out artefacts and off-target activity.)
Experiment [15] addresses Paired box protein Pax-8 (Homo sapiens, UniProt Q06710). In words: inhibitors of PAX8-driven TPO luciferase reporter, dose response, RMG-I cells, cherry-pick (AID 687027).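 Note: luciferase reporter driven by Pax8 target thyroperoxidase promoter measured by SteadyGlo luminescence.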 The class given is functional, cell-based. On the technique in general: Reporter assays use an easily measured gene product as a stand-in for the process of interest.
Experiment [16] can be described thus: HepG2 cell cytotoxicity, dose response, cytotoxicity control, cherry-picks, set 5 (AID 1053118). The class given is functional, cell-based.
Experiment [17] is described as follows: HEK293 cell cytotoxicity, dose response, cytotoxicity control, cherry-picks, set 5 (AID 1053117). The class given is functional, cell-based.
The nature of experiment [18]: non-specific cell cytotoxicity, dose response, cytotoxicity control for PAX8 inhibitor project, plate reader, dry powder samples (AID 743021). The class given is functional, cell-based.
The nature of experiment [19]: inhibitors of fibronectin matrix deposition, dose response, AH1F cells, Alexa488-FN fluorescence, cherry-picks (AID 1035475). The experiment is classed as functional, cell-based.

Sequence of Paired box protein Pax-8 (Q06710 whole entry): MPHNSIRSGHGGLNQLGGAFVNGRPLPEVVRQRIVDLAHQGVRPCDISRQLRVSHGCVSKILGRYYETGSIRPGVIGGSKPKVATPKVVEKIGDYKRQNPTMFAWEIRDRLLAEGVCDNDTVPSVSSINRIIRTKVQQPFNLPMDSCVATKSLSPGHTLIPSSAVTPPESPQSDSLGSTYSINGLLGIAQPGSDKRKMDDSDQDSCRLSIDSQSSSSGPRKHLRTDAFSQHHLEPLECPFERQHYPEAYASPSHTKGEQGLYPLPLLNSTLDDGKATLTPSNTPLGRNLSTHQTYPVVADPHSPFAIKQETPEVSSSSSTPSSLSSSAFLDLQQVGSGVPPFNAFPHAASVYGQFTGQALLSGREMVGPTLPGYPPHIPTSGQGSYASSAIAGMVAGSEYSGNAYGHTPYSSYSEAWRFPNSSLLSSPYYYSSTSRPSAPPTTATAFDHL
Sequence of Beta Lactamase (Q932Y6 whole entry): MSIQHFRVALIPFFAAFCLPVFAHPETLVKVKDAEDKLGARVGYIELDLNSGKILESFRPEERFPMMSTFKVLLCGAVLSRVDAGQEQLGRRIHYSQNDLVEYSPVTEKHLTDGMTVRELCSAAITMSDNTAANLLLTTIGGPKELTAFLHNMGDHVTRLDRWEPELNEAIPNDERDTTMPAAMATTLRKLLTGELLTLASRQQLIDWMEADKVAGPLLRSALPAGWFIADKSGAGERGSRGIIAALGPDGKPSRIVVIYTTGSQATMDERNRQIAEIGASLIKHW
Sequence of Beta-galactosidase (Q8VNN2 whole entry): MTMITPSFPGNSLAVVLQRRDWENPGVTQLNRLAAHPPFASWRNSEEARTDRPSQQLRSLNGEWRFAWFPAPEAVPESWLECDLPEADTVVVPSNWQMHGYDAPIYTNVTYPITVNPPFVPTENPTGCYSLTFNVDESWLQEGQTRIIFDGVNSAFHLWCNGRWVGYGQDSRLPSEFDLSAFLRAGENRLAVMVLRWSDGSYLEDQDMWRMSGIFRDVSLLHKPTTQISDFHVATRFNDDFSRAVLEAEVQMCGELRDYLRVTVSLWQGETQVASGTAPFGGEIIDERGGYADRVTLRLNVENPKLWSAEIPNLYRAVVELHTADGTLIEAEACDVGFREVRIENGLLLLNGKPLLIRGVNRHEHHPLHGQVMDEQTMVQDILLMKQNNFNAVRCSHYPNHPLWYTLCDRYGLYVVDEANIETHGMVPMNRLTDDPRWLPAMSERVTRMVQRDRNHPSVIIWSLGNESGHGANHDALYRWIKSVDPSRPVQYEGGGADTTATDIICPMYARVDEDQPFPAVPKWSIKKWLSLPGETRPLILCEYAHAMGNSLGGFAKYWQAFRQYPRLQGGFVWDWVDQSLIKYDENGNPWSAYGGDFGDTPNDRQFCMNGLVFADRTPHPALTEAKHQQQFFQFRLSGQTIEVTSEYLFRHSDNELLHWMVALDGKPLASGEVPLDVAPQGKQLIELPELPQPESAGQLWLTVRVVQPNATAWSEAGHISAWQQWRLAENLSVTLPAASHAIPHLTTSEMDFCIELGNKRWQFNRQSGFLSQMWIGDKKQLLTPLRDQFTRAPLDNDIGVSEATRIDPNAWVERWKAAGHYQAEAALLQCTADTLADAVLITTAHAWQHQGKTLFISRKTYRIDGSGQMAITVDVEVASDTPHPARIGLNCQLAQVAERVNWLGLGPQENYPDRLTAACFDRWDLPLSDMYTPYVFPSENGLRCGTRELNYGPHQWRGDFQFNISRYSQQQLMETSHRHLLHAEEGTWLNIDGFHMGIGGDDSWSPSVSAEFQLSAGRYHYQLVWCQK
Sequence of Large T antigen (P03070 whole entry): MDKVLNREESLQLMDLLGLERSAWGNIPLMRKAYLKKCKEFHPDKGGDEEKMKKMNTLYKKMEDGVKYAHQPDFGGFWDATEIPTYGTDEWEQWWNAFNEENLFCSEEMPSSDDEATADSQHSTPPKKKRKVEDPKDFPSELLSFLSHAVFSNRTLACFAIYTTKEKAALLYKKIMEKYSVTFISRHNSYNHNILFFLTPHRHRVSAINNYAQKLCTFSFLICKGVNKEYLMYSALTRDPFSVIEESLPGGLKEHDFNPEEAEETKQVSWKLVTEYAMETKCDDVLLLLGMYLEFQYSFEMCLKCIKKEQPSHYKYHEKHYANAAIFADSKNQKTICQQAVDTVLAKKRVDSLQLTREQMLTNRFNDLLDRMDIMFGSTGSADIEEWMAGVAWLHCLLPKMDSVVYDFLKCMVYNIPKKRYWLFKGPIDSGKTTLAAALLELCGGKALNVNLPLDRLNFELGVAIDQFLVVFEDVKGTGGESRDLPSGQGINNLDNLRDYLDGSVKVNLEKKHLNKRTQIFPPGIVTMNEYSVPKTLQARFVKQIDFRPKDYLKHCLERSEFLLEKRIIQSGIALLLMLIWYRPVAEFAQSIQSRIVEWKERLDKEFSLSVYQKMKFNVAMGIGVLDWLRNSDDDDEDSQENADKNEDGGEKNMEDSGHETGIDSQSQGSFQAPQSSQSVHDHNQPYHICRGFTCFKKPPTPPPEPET
Sequence of Melanocortin receptor 4 (P32245 whole entry): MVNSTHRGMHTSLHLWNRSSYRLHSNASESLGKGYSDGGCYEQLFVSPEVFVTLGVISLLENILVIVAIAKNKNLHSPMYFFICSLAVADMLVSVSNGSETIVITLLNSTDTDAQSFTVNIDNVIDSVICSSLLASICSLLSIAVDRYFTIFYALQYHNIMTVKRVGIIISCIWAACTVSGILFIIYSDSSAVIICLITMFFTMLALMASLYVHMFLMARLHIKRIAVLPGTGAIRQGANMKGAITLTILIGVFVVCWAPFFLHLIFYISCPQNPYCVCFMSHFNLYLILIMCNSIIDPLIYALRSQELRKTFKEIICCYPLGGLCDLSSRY

In the case of `CCS(=O)(=O)c1ncc(Cl)c(C(=O)Nc2ccc(S(=O)(=O)N3CCC(C)CC3)cc2)n1`, the EC50 in experiment [1] was > 40 µM (inactive); in experiment [2], 4.04 µM (active); in [4], 1.72 µM (active); in experiment [6], 4.05 µM (active); in [10] it was 889 nM (active). Besides, the IC50 in experiment [3] is 52.5 µM (active); in experiment [5] it was 6.11 µM (active); in [8], 1.81 µM (active); in experiment [11], 8.61 µM (active); in experiment [13] it was > 64.6 µM (inactive); in experiment [14], > 64.6 µM (inactive). In addition, the CC50 in experiment [7] was 34.7 µM (active). Besides, the AC50 in [9] was 1.13 µM (active); in experiment [12] it was 4.66 µM (active); in experiment [15], 3.45 µM (active); in experiment [16], 7.65 µM (active); in [17], 9.52 µM (active); in experiment [18] it was 29.3 µM (active). Besides, the half-maximal activity concentration (AC50) in experiment [19] was 5.39 µM (active).
